What was measured:
activated Th lymphocytes = experiment: Flow cytometry of activated Th lymphocytes in PBMC; format: in vivo, Balb/c based male mice; conditions: 100 mg/kg orally for 14 days
Method: (§1) Balb/c based male mice (8 weeks old) were divided into a vehicle control group, a group in which 5-aminolevulinic acid (hereinafter, referred as ‘ALA’, 100 mg/kg) was orally administered for 14 days (2 weeks), a group in which Lactobacillus reuteri ELF (hereinafter, referred to as ‘LAB’, 100 mg/kg) was orally administered for 14 days (2 weeks), a group in which a mixture sample (50 mg/kg) of Lactobacillus reuteri ELF and 5-aminolevulinic acid (hereinafter, referred to as ‘ALA+LAB’) was orally administered for 14 days (2 weeks), and a group in which the mixture sample (100 mg/kg) of Lactobacillus reuteri ELF and 5-aminolevulinic acid was orally administered for 14 days (2 weeks).
(§2) After 2 weeks of administration, in order to obtain PBMC in the mice, the blood was extracted using a syringe (3 ml) treated with heparin by a cardiac puncture method. The extracted blood was mixed and treated with 10 ml of ACK solution (a solution obtained by mixing 8.3 g of NH4Cl and 1 g of KHCO3 with demineralized water to which 0.1 Mm EDTA was added) prepared in advance at room temperature for 5 minutes, thereby removing red blood cells. […] Thereafter, the resultants were washed with PBS three times or more, and frequencies (%) of activated CD4^+ CD25^+, CD44^+ CD69^+, CD49b^+ NK1.1^+, and CD25^+ CTLA-4^+ cells were analyzed using a cell quest program of flow cytometry.

[1] = test system: peritoneal cell population; experiment: Proliferation of peritoneal cell population (number of lymphocytes); format: in vivo, Balb/c based mice; conditions: abdominal cavity, orally for 14 days
Method: Balb/c based mice were divided into a vehicle control group, a group in which 5-aminolevulinic acid (100 mg/kg) was orally administered for 14 days (2 weeks), a group in which Lactobacillus reuteri ELF (100 mg/kg) was orally administered for 14 days (2 weeks), a group in which a mixture sample (50 mg/kg) of Lactobacillus reuteri ELF and 5-aminolevulinic acid was orally administered for 14 days (2 weeks), and a group in which the mixture sample (100 mg/kg) of Lactobacillus reuteri ELF and 5-aminolevulinic acid was orally administered for 14 days (2 weeks). Two days before termination of administration, 0.5 ml of 2% normal saline suspension of starch was injected into the abdominal cavity of the mice to thereby be immunized. The mice were sacrificed, and the abdomen was disinfected with alcohol. […] After recovered cells were cooled, washed with the same HBSS solution two times, the number of peritoneal cells existing therein was directly measured using a hemocytometer under a microscope. […] Thereafter, the resultants were washed with PBS three times or more, and frequencies (%) of activated CD11b^+ CD14^+, CD3^+ CD4^+, and CD3^+ CD8^+ cells were analyzed using the Cell Quest program of a flow cytometry, and a total cell count was applied thereto, thereby calculating the absolute number of peritoneal cell population.

[2] = test system: cytochrome c oxidase (COX); experiment: COX activity in liver mitochondria; format: in vivo, Balb/c based mice; conditions: 100 mg/kg orally for 14 days
Method: Balb/c based mice were divided into a vehicle control group, a group in which 5-aminolevulinic acid (100 mg/kg) was orally administered for 14 days (2 weeks), a group in which Lactobacillus reuteri ELF (100 mg/kg) was orally administered for 14 days (2 weeks), and a group in which the mixture sample (100 mg/kg) of Lactobacillus reuteri ELF and 5-aminolevulinic acid was orally administered for 14 days (2 weeks). In order to measure cytochrome c oxidase (COX) activity in the liver mitochondria of the mouse after administration, proteins were extracted from the liver cells of the mouse and measured using a COX activity assay kit (TA100, Toyo B Net).

CD4^+ CD25^+ cells = experiment: Flow cytometry, frequency of CD4^+ CD25^+ cells; format: in vivo, Balb/c based male mice; conditions: 100 mg/kg orally for 14 days
Method: as §1, §2

IL-4 = IL-4 production amount in cultured spleen cells (ELISA); format: in vivo, Balb/c based male mice; conditions: single agents 100 mg/kg, mixture sample 50 and 100 mg/kg, orally for 14 days
Method: as §1
(§3) After 2 weeks of administration, the spleen was harvested from the mice, and spleen cells were isolated with a 100 mesh filter. Before one day of measurement, anti-CD3 mAb (1 μg/ml) was coated on a 96-well plate and kept overnight in a refrigerator at 4° C., and the 96-well plate was washed with D-PBS two times. […] Levels of IFN-γ, IL-2, IL-4, and IL-10 in the culture supernatant were measured by enzyme-linked immuno-sorbent assay (ELISA). […] Thereafter, absorbance was measured at 450 nm in an ELISA reader.

IL-2 = IL-2 production amount in cultured spleen cells (ELISA); format: in vivo, Balb/c based male mice; conditions: single agents 100 mg/kg, mixture sample 50 and 100 mg/kg, orally for 14 days
Method: as §1, §3

NKG2D = experiment: Flow cytometry, frequency of NKG2D, bioactive marker of NK cells; format: in vivo, Balb/c based male mice; conditions: 100 mg/kg orally for 14 days
Gr-1/CD11b cells = experiment: Flow cytometry, frequency of Gr-1/CD11b cells; format: in vivo, Balb/c based male mice; conditions: 100 mg/kg orally for 14 days
CD3 T cells = experiment: Flow cytometry, frequency of CD3 T cells; format: in vivo, Balb/c based male mice; conditions: 100 mg/kg orally for 14 days
IFN-γ = IFN-γ production amount in cultured spleen cells (ELISA); format: in vivo, Balb/c based male mice; conditions: single agents 100 mg/kg, mixture sample 50 and 100 mg/kg, orally for 14 days
Method: as §1, §3

[3] = test system: IFN-γ, IL-2, IL-4, and IL-10; experiment: ELISA absorbance of culture supernatant of spleen cells (cytokine not specified); format: in vivo, Balb/c based male mice; conditions: 100 mg/kg orally for 14 days; spleen cells on anti-CD3 mAb, 48 hours
Method: as §1, §3

[4] = test system: nitrogen oxide (NO) in macrophage; experiment: Nitrogen oxide (NO) formation in macrophage; format: in vivo, Balb/c based mice; conditions: 100 mg/kg orally for 14 days; peritoneal macrophages cultured 72 hours
Method: Balb/c based mice were divided into a vehicle control group, a group in which 5-aminolevulinic acid (100 mg/kg) was orally administered for 14 days (2 weeks), a group in which Lactobacillus reuteri ELF (100 mg/kg) was orally administered for 14 days (2 weeks), a group in which a mixture sample (50 mg/kg) of Lactobacillus reuteri ELF and 5-aminolevulinic acid was orally administered for 14 days (2 weeks), and a group in which the mixture sample (100 mg/kg) of Lactobacillus reuteri ELF and 5-aminolevulinic acid was orally administered for 14 days (2 weeks). Three days before termination of administration, after 1.5 ml of 10% proteose peptone (Difco) aqueous solution was administered into the abdominal cavity of the mice, the mice were sacrificed, and the abdomen was disinfected with alcohol. The skin of the abdomen was cut using scissors, and the peritoneum was exposed. Then, 4.5 ml of cooled Hanks' balanced salt solution (HBSS) was injected into the abdominal cavity using a syringe and abdominal massage was performed thereon for 30 seconds, followed by recovering a peritoneal washing fluid using a syringe. […] In addition, after 200 μl of […] reagent II in which 0.06 g of N-1-naphthylene amidehydrochloride was dissolved in 50 ml of distilled water was rapidly added thereto, and stirred, absorbance was measured at 540 nm.

NCC(=O)CCC(=O)O [5-aminolevulinic acid]
frequency of activated Th lymphocytes in PBMC, increase as compared to the negative control group (activated Th lymphocytes): ≥ 46.2% | number of lymphocytes as compared to the control group [1]: increased | COX activity in liver mitochondria relative to control group [2]: increased by two times or more | frequency of CD4^+ CD25^+ cells as compared to the control group (CD4^+ CD25^+ cells): significantly increased | IL-4 production amount as compared to control group (NC) (IL-4): slightly increased | IL-2 production amount as compared to control group (NC) (IL-2): slightly increased | frequency of NKG2D as compared to the control group (NKG2D): significantly increased | frequency of Gr-1/CD11b cells as compared to the control group (Gr-1/CD11b cells): significantly increased | frequency of CD3 T cells as compared to the control group (CD3 T cells): increased | IFN-γ production amount as compared to control group (NC) (IFN-γ): slightly increased | ELISA absorbance at 450 nm relative to control group (NC) [3]: increased two times or more | nitrogen oxide (NO) production amount as compared to the control group (NC) [4]: statistically significantly increased
